experiment: Stability of pure lycopene isomers in n-hexane during storage at room temperature; type: physicochemical; conditions: after 33 day storage in n-hexane, room temperature, absence of light
Description: Pure 5-Z, 9-Z, 13-Z and all-E lycopene were isolated from isomerised tomato oleoresin (submitted to 1 hour heating), by collecting the fractions containing the corresponding peaks after HPLC separation (see below the experimental conditions). Peaks were collected during two consecutive HPLC runs and the corresponding fractions were pooled.
Amount of total lycopene was determined by reverse phase HPLC on a C18 precolumn (ODS Hypersil, 5 μm, 20×4 mm; Hewlett Packard, Geneva, Switzerland) and a C18 column (Nova pak, 3.9 μm i.d.×300 mm length, Millipore, Volketswil, Switzerland). […] The mobile phase flow rate was 1.5 mL/min. Lycopene isomer profiles were determined by normal phase HPLC according to the method described by Schierle et al. (1997). Food. Chem. 59: 459. Samples of isomerized oleoresins were dissolved in n-hexane containing 50 ppm BHT and spun at maximum speed in an Eppendorf Lab centrifuge. The resulting supernatants were immediately analyzed by HPLC. The HPLC system used was a 1100 series Hewlett-Packard model equipped with an ultraviolet-visible photodiode array detector. Data were simultaneously acquired at 470 nm, 464 nm, 346 nm and 294 nm. Samples (10 μl) were separated using a combination of three Nucleosil 300-5 columns (4 mm internal diameter×250 mm length, Macherey-Nagel). […] Flow rate was 0.8 mL/min. Lycopene Z-isomers were identified according to literature data.
Amounts of lycopene isomers were calculated based on surface areas of the HPLC peaks using the same extinction coefficient as the all-E lycopene. Therefore, the lycopene concentration in products containing Z-isomers is slightly underestimated since it is recognized that the extinction coefficients of Z-isomers are lower than that of the all-E isomer. Conditions for Stability Tests
Stability of lycopene isomers was investigated both in n-hexane and in a tomato oleoresin isomerized by 4 hour heating in ethyl acetate. For this purpose, pure lycopene isomers were stored for 33 days in n-hexane at room temperature and in the absence of light, and the isomerized tomato oleoresin was kept for 55 days at room temperature in the absence of light. Total lycopene concentration and lycopene isomer profiles were measured at various time intervals during the storage.

Compound	fraction of the isomer transformed / converted into other isomers
CC(C)=CCC/C(C)=C/C=C/C(C)=C/C=C/C(C)=C\C=C\C=C(C)\C=C\C=C(C)\C=C\C=C(/C)CCC=C(C)C [13-Z lycopene]	more than 80%

same assay, conditions: both stability tests (n-hexane and tomato oleoresin)

Compound	stability compared with the 5-Z, 9-Z and all-E isomers
CC(C)=CCC/C(C)=C/C=C/C(C)=C/C=C/C(C)=C\C=C\C=C(C)\C=C\C=C(C)\C=C\C=C(/C)CCC=C(C)C [13-Z lycopene]	much less stable

same assay, conditions: n-hexane, room temperature, absence of light, 0 days

Compound	concentration 5-Z	concentration all E	concentration x-Z	concentration 9-Z	concentration 13-Z
CC(C)=CCC\C(C)=C/C=C/C(C)=C/C=C/C(C)=C/C=C/C=C(C)/C=C/C=C(C)/C=C/C=C(\C)CCC=C(C)C [5-Z lycopene]	95.5 % of total isomers	1.1 % of total isomers	3.4 % of total isomers	–	–
CC(C)=CCC/C(C)=C/C=C/C(C)=C\C=C\C(C)=C\C=C\C=C(C)\C=C\C=C(C)\C=C\C=C(/C)CCC=C(C)C [9-Z lycopene]	1.8 % of total isomers	4.4 % of total isomers	0 % of total isomers	93.3 % of total isomers	0.6 % of total isomers
CC(C)=CCC/C(C)=C/C=C/C(C)=C/C=C/C(C)=C\C=C\C=C(C)\C=C\C=C(C)\C=C\C=C(/C)CCC=C(C)C [13-Z lycopene]	0 % of total isomers	2.4 % of total isomers	1.0 % of total isomers	0 % of total isomers	96.6 % of total isomers
CC(C)=CCC/C(C)=C/C=C/C(C)=C/C=C/C(C)=C/C=C/C=C(C)/C=C/C=C(C)/C=C/C=C(\C)CCC=C(C)C [all-E lycopene]	0.5 % of total isomers	97.6 % of total isomers	0.1 % of total isomers	0.5 % of total isomers	1.4 % of total isomers

same assay, conditions: n-hexane, room temperature, absence of light, 1 day

Compound	concentration 5-Z	concentration all E	concentration x-Z	concentration 9-Z	concentration 13-Z
CC(C)=CCC\C(C)=C/C=C/C(C)=C/C=C/C(C)=C/C=C/C=C(C)/C=C/C=C(C)/C=C/C=C(\C)CCC=C(C)C [5-Z lycopene]	84.3 % of total isomers	2.2 % of total isomers	13.5 % of total isomers	–	–
CC(C)=CCC/C(C)=C/C=C/C(C)=C\C=C\C(C)=C\C=C\C=C(C)\C=C\C=C(C)\C=C\C=C(/C)CCC=C(C)C [9-Z lycopene]	2.1 % of total isomers	5.8 % of total isomers	2.8 % of total isomers	87.1 % of total isomers	2.3 % of total isomers
CC(C)=CCC/C(C)=C/C=C/C(C)=C/C=C/C(C)=C\C=C\C=C(C)\C=C\C=C(C)\C=C\C=C(/C)CCC=C(C)C [13-Z lycopene]	0 % of total isomers	42.6 % of total isomers	0 % of total isomers	0.4 % of total isomers	57.0 % of total isomers
CC(C)=CCC/C(C)=C/C=C/C(C)=C/C=C/C(C)=C/C=C/C=C(C)/C=C/C=C(C)/C=C/C=C(\C)CCC=C(C)C [all-E lycopene]	1.2 % of total isomers	86.0 % of total isomers	1.5 % of total isomers	1.2 % of total isomers	10.1 % of total isomers

same assay, conditions: n-hexane, room temperature, absence of light, 2 days

Compound	concentration 5-Z	concentration all E	concentration x-Z	concentration 9-Z	concentration 13-Z
CC(C)=CCC\C(C)=C/C=C/C(C)=C/C=C/C(C)=C/C=C/C=C(C)/C=C/C=C(C)/C=C/C=C(\C)CCC=C(C)C [5-Z lycopene]	76.9 % of total isomers	2.4 % of total isomers	20.6 % of total isomers	–	–
CC(C)=CCC/C(C)=C/C=C/C(C)=C\C=C\C(C)=C\C=C\C=C(C)\C=C\C=C(C)\C=C\C=C(/C)CCC=C(C)C [9-Z lycopene]	11.6 % of total isomers	6.0 % of total isomers	5.9 % of total isomers	83.5 % of total isomers	3.1 % of total isomers
CC(C)=CCC/C(C)=C/C=C/C(C)=C/C=C/C(C)=C\C=C\C=C(C)\C=C\C=C(C)\C=C\C=C(/C)CCC=C(C)C [13-Z lycopene]	0 % of total isomers	59.8 % of total isomers	1.5 % of total isomers	0 % of total isomers	38.7 % of total isomers
CC(C)=CCC/C(C)=C/C=C/C(C)=C/C=C/C(C)=C/C=C/C=C(C)/C=C/C=C(C)/C=C/C=C(\C)CCC=C(C)C [all-E lycopene]	2.6 % of total isomers	78.4 % of total isomers	3.0 % of total isomers	1.1 % of total isomers	15.0 % of total isomers

same assay, conditions: n-hexane, room temperature, absence of light, 5 days

Compound	concentration 5-Z	concentration all E	concentration x-Z	concentration 9-Z	concentration 13-Z
CC(C)=CCC\C(C)=C/C=C/C(C)=C/C=C/C(C)=C/C=C/C=C(C)/C=C/C=C(C)/C=C/C=C(\C)CCC=C(C)C [5-Z lycopene]	68.4 % of total isomers	3.9 % of total isomers	27.7 % of total isomers	–	–
CC(C)=CCC/C(C)=C/C=C/C(C)=C\C=C\C(C)=C\C=C\C=C(C)\C=C\C=C(C)\C=C\C=C(/C)CCC=C(C)C [9-Z lycopene]	1.5 % of total isomers	5.6 % of total isomers	8.6 % of total isomers	79.2 % of total isomers	5.2 % of total isomers
CC(C)=CCC/C(C)=C/C=C/C(C)=C/C=C/C(C)=C\C=C\C=C(C)\C=C\C=C(C)\C=C\C=C(/C)CCC=C(C)C [13-Z lycopene]	1.9 % of total isomers	68.9 % of total isomers	4.3 % of total isomers	1.5 % of total isomers	23.4 % of total isomers
CC(C)=CCC/C(C)=C/C=C/C(C)=C/C=C/C(C)=C/C=C/C=C(C)/C=C/C=C(C)/C=C/C=C(\C)CCC=C(C)C [all-E lycopene]	3.8 % of total isomers	69.3 % of total isomers	5.1 % of total isomers	2.2 % of total isomers	19.6 % of total isomers

same assay, conditions: n-hexane, room temperature, absence of light, 12 days

Compound	concentration 5-Z	concentration 9-Z	concentration 13-Z	concentration all E	concentration x-Z
CC(C)=CCC\C(C)=C/C=C/C(C)=C/C=C/C(C)=C/C=C/C=C(C)/C=C/C=C(C)/C=C/C=C(\C)CCC=C(C)C [5-Z lycopene]	65.3 % of total isomers	0.7 % of total isomers	1.7 % of total isomers	5.6 % of total isomers	26.7 % of total isomers
CC(C)=CCC/C(C)=C/C=C/C(C)=C\C=C\C(C)=C\C=C\C=C(C)\C=C\C=C(C)\C=C\C=C(/C)CCC=C(C)C [9-Z lycopene]	2.3 % of total isomers	66.5 % of total isomers	8.2 % of total isomers	7.0 % of total isomers	15.9 % of total isomers
CC(C)=CCC/C(C)=C/C=C/C(C)=C/C=C/C(C)=C\C=C\C=C(C)\C=C\C=C(C)\C=C\C=C(/C)CCC=C(C)C [13-Z lycopene]	5.3 % of total isomers	2.6 % of total isomers	20.8 % of total isomers	65.5 % of total isomers	5.8 % of total isomers
CC(C)=CCC/C(C)=C/C=C/C(C)=C/C=C/C(C)=C/C=C/C=C(C)/C=C/C=C(C)/C=C/C=C(\C)CCC=C(C)C [all-E lycopene]	6.4 % of total isomers	2.0 % of total isomers	18.2 % of total isomers	67.8 % of total isomers	5.6 % of total isomers

same assay, conditions: n-hexane, room temperature, absence of light, 33 days

Compound	concentration 5-Z	concentration 9-Z	concentration 13-Z	concentration all E	concentration x-Z
CC(C)=CCC\C(C)=C/C=C/C(C)=C/C=C/C(C)=C/C=C/C=C(C)/C=C/C=C(C)/C=C/C=C(\C)CCC=C(C)C [5-Z lycopene]	53.5 % of total isomers	2.3 % of total isomers	2.8 % of total isomers	10.7 % of total isomers	30.7 % of total isomers
CC(C)=CCC/C(C)=C/C=C/C(C)=C\C=C\C(C)=C\C=C\C=C(C)\C=C\C=C(C)\C=C\C=C(/C)CCC=C(C)C [9-Z lycopene]	4.1 % of total isomers	56.0 % of total isomers	10.5 % of total isomers	9.8 % of total isomers	19.7 % of total isomers
CC(C)=CCC/C(C)=C/C=C/C(C)=C/C=C/C(C)=C\C=C\C=C(C)\C=C\C=C(C)\C=C\C=C(/C)CCC=C(C)C [13-Z lycopene]	11.7 % of total isomers	4.2 % of total isomers	16.9 % of total isomers	57.0 % of total isomers	10.2 % of total isomers
CC(C)=CCC/C(C)=C/C=C/C(C)=C/C=C/C(C)=C/C=C/C=C(C)/C=C/C=C(C)/C=C/C=C(\C)CCC=C(C)C [all-E lycopene]	13.4 % of total isomers	3.8 % of total isomers	15.7 % of total isomers	58.7 % of total isomers	8.4 % of total isomers

same assay, conditions: storage in n-hexane

Compound	transformation pathway during storage
CC(C)=CCC\C(C)=C/C=C/C(C)=C/C=C/C(C)=C/C=C/C=C(C)/C=C/C=C(C)/C=C/C=C(\C)CCC=C(C)C [5-Z lycopene]	principally transformed into other Z-isomers
CC(C)=CCC/C(C)=C/C=C/C(C)=C\C=C\C(C)=C\C=C\C=C(C)\C=C\C=C(C)\C=C\C=C(/C)CCC=C(C)C [9-Z lycopene]	principally transformed into other Z-isomers
CC(C)=CCC/C(C)=C/C=C/C(C)=C/C=C/C(C)=C\C=C\C=C(C)\C=C\C=C(C)\C=C\C=C(/C)CCC=C(C)C [13-Z lycopene]	mainly converted into the all-E isomer

Source: patent US9125430B2, “Stable and bioavailable compositions of isomers of carotenoids for skin and hair” (Nestec S.A., priority 2006, dated 2015)
